Experimental findings from patent US20260376293A1, “METHODS FOR STUDYING GPR158 PHARMACOLOGY AND IDENTIFICATION OF ITS LIGANDS” (UNIVERSITY OF FLORIDA RESEARCH FOUNDATION, INCORPORATED, priority 2022, published 2026) are described below.

In the experiment the target is T1, GPR158 (Homo sapiens, UniProt Q5T848).
T1 sequence (Q5T848 24-1215): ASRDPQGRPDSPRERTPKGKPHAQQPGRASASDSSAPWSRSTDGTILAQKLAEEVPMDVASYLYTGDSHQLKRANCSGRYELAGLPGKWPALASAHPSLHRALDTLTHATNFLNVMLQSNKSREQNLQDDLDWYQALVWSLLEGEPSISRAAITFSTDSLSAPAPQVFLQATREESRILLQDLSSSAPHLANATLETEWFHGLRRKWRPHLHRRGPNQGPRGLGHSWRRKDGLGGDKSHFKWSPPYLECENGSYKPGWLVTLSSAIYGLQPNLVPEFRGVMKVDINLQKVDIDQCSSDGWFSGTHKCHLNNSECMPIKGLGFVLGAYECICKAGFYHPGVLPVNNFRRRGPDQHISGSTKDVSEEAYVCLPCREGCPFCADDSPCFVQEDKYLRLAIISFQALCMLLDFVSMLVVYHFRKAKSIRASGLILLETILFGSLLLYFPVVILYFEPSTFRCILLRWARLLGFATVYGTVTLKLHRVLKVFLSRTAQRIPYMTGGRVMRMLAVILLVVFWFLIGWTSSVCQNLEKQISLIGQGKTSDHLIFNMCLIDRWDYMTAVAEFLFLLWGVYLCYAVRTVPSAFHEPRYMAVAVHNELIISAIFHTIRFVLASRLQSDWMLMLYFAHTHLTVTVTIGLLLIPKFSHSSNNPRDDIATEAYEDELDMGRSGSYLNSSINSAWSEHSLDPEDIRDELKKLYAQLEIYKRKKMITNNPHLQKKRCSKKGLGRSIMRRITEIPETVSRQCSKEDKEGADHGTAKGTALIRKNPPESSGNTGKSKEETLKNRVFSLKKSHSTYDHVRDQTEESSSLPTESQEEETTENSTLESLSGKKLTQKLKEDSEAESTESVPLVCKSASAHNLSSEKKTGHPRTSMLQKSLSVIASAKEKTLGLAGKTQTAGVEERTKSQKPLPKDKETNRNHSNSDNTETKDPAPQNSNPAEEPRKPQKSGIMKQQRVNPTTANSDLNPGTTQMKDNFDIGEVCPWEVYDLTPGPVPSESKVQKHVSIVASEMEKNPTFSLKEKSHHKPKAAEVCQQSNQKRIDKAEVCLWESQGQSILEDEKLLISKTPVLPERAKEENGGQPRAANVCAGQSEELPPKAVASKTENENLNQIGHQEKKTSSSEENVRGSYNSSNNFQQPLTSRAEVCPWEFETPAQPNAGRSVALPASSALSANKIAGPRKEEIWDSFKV
Put plainly: Whole cell radioligand binding assay. Further details: expressed in transfected cells; host or cells: HEK293 (HEK293FT in the BRET methods). Particulars: HEK293 cells, across concentrations. How it is done: FIG. 7. Direct binding of glycine in whole cell radiolabeled assay a) Schematics of the radioligand binding assay. b) Quantification of ^3H-glycine binding to cells. Count Per minute (CPM) are measured and plotted. Data shown mean of 3 independent experiments error bars are s.e.m. values, n=3, *p=0.0403, ***p<0.001, ****p<0.0001 (two-way ANOVA) Columns with no fill (Control cells), columns with angled-line fill (GPR158 cells).
Next, the inventors performed radioligand binding assays examining binding of [^3H]-labeled glycine to HEK293 cells expressing GPR158 (FIG. 7A). […] The inventors have then isolated cellular membranes and conducted classical radioligand titration experiments (FIG. 9D). The inventors detected saturable [^3H]-glycine binding to membranes containing GPR158 is substantial excess over linear non-specific binding to membranes devoid of GPR158 (FIG. 9E). Scatchard analysis (FIG. 9F) estimated Kd of GPR158 for glycine to be ~3 μM. The inventors further performed binding competition experiments directly comparing the ability of glycine and taurine to displace [^3H]-labeled glycine bound to GPR158 (FIG. 8).
Whole cell binding was performed using cDNA of GPR158-venus or each GPR158-venus mutant or empty pcDNA3.1+ for ctrl cells. […] Finally radioactivity was measured using the liquid scintillation analyzer Tri-Carb 4910 TR.

For the compound `NCC(=O)O` [^3H-glycine, [^3H]-glycine], the “binding to GPR158-expressing cells” value is recorded as “significant binding”.
